Patent US20030113814A1, “Identification of modulators of gpr55 activity” (priority 2002, published 2003)
One block for each compound: values may come before it.

Columns and labels:
[1] = tested on: control cells transformed with the vector p426GPD in combination with Gpa1/Gα13 and therefore lacking GPR55; test: Yeast reporter gene assay in control cells transformed with vector p426GPD (lacking GPR55); assay type: cell-based, Saccharomyces cerevisiae; details: data not shown
Excerpt: A system of yeast strains MMY14-MMY24 has been described previously (Olesnicky et al, EMBO J. 18, 2756-2763, 1999, Brown et al, Yeast 16, 11-22, 2000). These strains contain a series of genetic modifications to enable coupling of heterologously expressed receptors to the expression of two reporter genes, via the endogenous yeast pheromone response signal transduction pathway. Importantly, the gene encoding the endogenous yeast pheromone receptor, STE2, has been deleted from these strains such that cells containing p426GPD-GPR55 will express GPR55 protein in place of Ste2 receptor protein. Furthermore, the gene encoding the G-protein α-subunit involved in the pheromone response, GPA1, has been deleted from these strains. To enable receptor coupling in strains MMY14-24, plasmid constructs encoding modified versions of GPA1 have been stably integrated into the yeast chromosome and are expressed in place of endogenous yeast GPA1. […]
In vivo assays of reporter gene induction were carried out by suspending yeast cells transformed as described above to a density of 0.02 OD600/ml in 200 μl SC-glucose (2%) medium lacking tryptophan, uracil and histidine. […] Plates were incubated for 24 hours at 30° C. without agitation, and absorbance at 570 nm was determined using a Spectrofluor microtitre plate reader (Tecan).

EDG1 = target: T1, EDG1 (Homo sapiens, UniProt P21453); test: Yeast reporter gene assay with unrelated receptor; assay type: cell-based
T1 construct: expressed in transfected cells; host or cells: Saccharomyces cerevisiae reporter strain (inferred from context)
T1 sequence (P21453 whole entry): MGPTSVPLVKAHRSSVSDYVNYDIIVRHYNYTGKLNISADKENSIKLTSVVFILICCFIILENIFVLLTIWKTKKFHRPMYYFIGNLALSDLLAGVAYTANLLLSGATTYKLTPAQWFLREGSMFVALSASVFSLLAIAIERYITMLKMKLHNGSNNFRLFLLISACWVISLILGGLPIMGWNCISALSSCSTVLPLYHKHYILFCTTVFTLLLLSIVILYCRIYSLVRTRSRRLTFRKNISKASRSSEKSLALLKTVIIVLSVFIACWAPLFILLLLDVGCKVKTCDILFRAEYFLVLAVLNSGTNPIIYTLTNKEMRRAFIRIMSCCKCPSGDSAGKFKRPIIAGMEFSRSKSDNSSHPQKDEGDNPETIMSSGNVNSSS

Human GPR55 = target: T2, Human GPR55 (Homo sapiens, UniProt Q9Y2T6); test: Yeast FUS1-lacZ/FUS1-HIS3 reporter gene induction assay, yeast expressing p426GPD-GPR55 with Gpa1/Gα chimeras; assay type: cell-based
T2 construct: expressed in transfected cells; host or cells: Saccharomyces cerevisiae strains MMY14-MMY24 (STE2 and GPA1 deleted, Gpa1/Gα chimeras integrated)
T2 sequence (Q9Y2T6 whole entry): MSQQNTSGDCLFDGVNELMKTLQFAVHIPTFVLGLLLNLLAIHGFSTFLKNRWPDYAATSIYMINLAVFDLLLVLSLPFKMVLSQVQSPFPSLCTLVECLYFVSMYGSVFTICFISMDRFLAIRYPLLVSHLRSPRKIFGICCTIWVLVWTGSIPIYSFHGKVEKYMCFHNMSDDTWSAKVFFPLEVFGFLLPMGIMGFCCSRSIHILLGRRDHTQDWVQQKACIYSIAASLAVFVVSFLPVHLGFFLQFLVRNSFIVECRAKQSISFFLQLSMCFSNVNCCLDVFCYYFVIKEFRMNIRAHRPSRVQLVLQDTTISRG
Excerpt: These strains contain a series of genetic modifications to enable coupling of heterologously expressed receptors to the expression of two reporter genes, via the endogenous yeast pheromone response signal transduction pathway. Importantly, the gene encoding the endogenous yeast pheromone receptor, STE2, has been deleted from these strains such that cells containing p426GPD-GPR55 will express GPR55 protein in place of Ste2 receptor protein. Furthermore, the gene encoding the G-protein α-subunit involved in the pheromone response, GPA1, has been deleted from these strains. To enable receptor coupling in strains MMY14-24, plasmid constructs encoding modified versions of GPA1 have been stably integrated into the yeast chromosome and are expressed in place of endogenous yeast GPA1. […] Generally, the modifications made to Gpa1 facilitate coupling of heterologously expressed receptors to the yeast pheromone response pathway.
In vivo assays of reporter gene induction were carried out by suspending yeast cells transformed as described above to a density of 0.02 OD600/ml in 200 μl SC-glucose (2%) medium lacking tryptophan, uracil and histidine. This medium was supplemented with 10 mM 3-aminotriazole and the β-galactosidase (lacZ) substrate chlorophenolred-β-D-galactopyranoside (CPRG; Boehringer Mannheim) to a concentration of 0.1 mg/ml. […] To visualise the yellow to red colour change reaction occurring on degradation of CPRG due to β-galactosidase, the medium was buffered to pH 7 with 0.1 M sodium phosphate. The assay was conducted in flat-bottomed sterile 96-well microtitre plates. Plates were incubated for 24 hours at 30° C. without agitation, and absorbance at 570 nm was determined using a Spectrofluor microtitre plate reader (Tecan).

SMILES: Cc1c(C(=O)NN2CCCCC2)nn(-c2ccc(Cl)cc2Cl)c1-c1ccc(I)cc1 [AM251, N-(piperidin-1-yl)-5-(4-iodophenyl)-1-(2,4-dichlorophenyl)-4-methyl-1H-pyrazole-3-carboxamide]
increase in reporter gene activity in control cells [1]: not observed | activation of unrelated receptors (EDG1) (EDG1): 1.3 fold over background | agonism at GPR 55 (Human GPR55; GPR 55 expressed in yeast containing Gpa1/GαI3, Gαi2 and Gαi3 chimeras (FIG. 3 legend)): acts as an agonist | GPR55 activity in strain expressing Gpa1/Gα12 (Human GPR55; Gpa1/Gα12): Activity has also been observed | GPR55 activity in strains expressing Gpa1/Gαi2 or Gpa1/Gαi3 (Human GPR55; Gpa1/Gαi2 or Gpa1/Gαi3 (FIG. 3)): weaker activities | reporter gene activity (Human GPR55; yeast co-expressing p426GPD-GPR55 and Gpa1/Gα13, response dependent on concentration (FIG. 3)): significant increase | activation of GPR55 (Human GPR55; yeast reporter assay): up to 60 fold over background

activity at GPR55 (Human GPR55; tested at GPR55 in yeast, data not shown): appeared active
SMILES: Cc1c(C(=O)NN2CCOCC2)nn(-c2ccc(Cl)cc2Cl)c1-c1ccc(I)cc1 [AM281, 1-(2,4-dichlorophenyl)-5-(4-iodophenyl)-4-methyl-N-4-morpholinyl-1H-pyrazole-3-carboxamide]
